From patent publication US7893025B2, “Use of growth hormone releasing factor analogs in treating patients suffering from wasting” (Theratechnolgies Inc., priority 2003, dated 2011)

Test: Adverse events and safety laboratory parameters; discontinuations
Format: in vivo, human
Details: 2 mg group, following 1 month of treatment
Description: The results presented herein were obtained from a multicentre, randomized, double-blind, placebo-controlled study. The compound TH9507 was administered by subcutaneous injection daily (1 or 2 mg dose) for a three-month period. Patients were of both genders, aged 50 years or older, with stable COPD as per the 1995 American Thoracic Society criteria.
Adverse events and safety laboratory parameters (haematology, biochemistry, urinalysis) were measured using standard laboratory methods.

CC/C=C/CC(=O)N[C@@H](Cc1ccc(O)cc1)C(=O)N[C@@H](C)C(=O)N[C@@H](CC(=O)O)C(=O)N[C@@H](C)C(=O)N[C@H](C(=O)N[C@@H](Cc1ccccc1)C(=O)N[C@H](C(=O)N[C@@H](CC(N)=O)C(=O)N[C@@H](CO)C(=O)N[C@@H](Cc1ccc(O)cc1)C(=O)N[C@@H](CCCNC(=N)N)C(=O)N[C@@H](CCCCN)C(=O)N[C@H](C(=O)N[C@@H](CC(C)C)C(=O)NCC(=O)N[C@@H](CCC(N)=O)C(=O)N[C@@H](CC(C)C)C(=O)N[C@@H](CO)C(=O)N[C@@H](C)C(=O)N[C@@H](CCCNC(=N)N)C(=O)N[C@@H](CCCCN)C(=O)N[C@@H](CC(C)C)C(=O)N[C@@H](CC(C)C)C(=O)N[C@@H](CCC(N)=O)C(=O)N[C@@H](CC(=O)O)C(=O)N[C@H](C(=O)N[C@@H](CCSC)C(=O)N[C@@H](CO)C(=O)N[C@@H](CCCNC(=N)N)C(=O)N[C@@H](CCC(N)=O)C(=O)N[C@@H](CCC(N)=O)C(=O)NCC(=O)N[C@@H](CCC(=O)O)C(=O)N[C@@H](CO)C(=O)N[C@@H](CC(N)=O)C(=O)N[C@@H](CCC(N)=O)C(=O)N[C@@H](CCC(=O)O)C(=O)N[C@@H](CCCNC(=N)N)C(=O)NCC(=O)N[C@@H](C)C(=O)N[C@@H](CCCNC(=N)N)C(=O)N[C@@H](C)C(=O)N[C@@H](CCCNC(=N)N)C(=O)N[C@@H](CC(C)C)C(N)=O)[C@@H](C)CC)C(C)C)[C@@H](C)O)[C@@H](C)CC [TH9507, (hexenoyl trans-3)hGRF(1-44)NH2]
Discontinuation possibly related to study drug: one patient in the 2 mg group who showed elevated creatine phosphokinase (CPK) and serum glutamic oxaloacetic transaminase (SGOT) values
